Data as given in US20040106578A1, “Fungicidal compositions based on pyridylmethylbenzamide derivatives and at least one complex III inhibiting compound” (priority 2001, published 2004).

Tested on: Plasmopara viticola
Assay: Test of a composition against vine downy mildew, preventive action, on grapevine plants
Type: in vivo
Conditions: grapevine var. Chardonnay sprayed 3 days before inoculation, evaluated 7 days after contamination, Abbott formula, untreated control 90% sporulated surface
Description: Test of a Composition Against Vine Downy Mildew (Plasmopara Viticola; Preventive Action)
Grapevine plants are grown (var. Chardonnay) on sandy soil in plastic pots, with one plant per pot. The plants which are two months old (6 to 7 developed leaves) are sprayed with compound (I) and compound (II), either alone, or as a mixture.
The fungicidal active ingredients, either alone, or as a mixture, are applied at a dose equivalent to 500 litres/ha.
The compound (I)/compound (II) ratio studied is 1/2.
Three days after the treatment, each plant is inoculated by spraying an aqueous suspension of Plasmopara viticola sporangia obtained from contaminated leaves. The sporangium concentration is about 100 000 units per ml.
After contamination, the plants are incubated for two days at 18° C. under a saturated atmosphere, and then for 5 days at about 20° C. with a relative humidity of 90-100%.
Seven days after the contamination, the symptoms are evaluated in terms of underside surface of the leaves which are infected, compared with the untreated but contaminated plants.
The efficacy of the treatment is calculated using the following Abbott formula: [formula]
The concentrations of the fungicides, alone or as a mixture, giving 50%, 70% or 90% efficacy for each component, in the appropriate test, are determined based on the dose/response sigmoid curve model and their corresponding confidence intervals. […]

| SMILES | Efficacy (%) (5 mg/l) | Efficacy (%) (10 mg/l) |
| --- | --- | --- |
| O=C(NCc1ncc(C(F)(F)F)cc1Cl)c1c(Cl)cccc1Cl [Compound (Ia), 2,6-dichloro-N-{[3-chloro-5-(trifluoromethyl)-2-pyridinyl]methyl}benzamide] | 40 |  |
| CSC1=N[C@@](C)(c2ccccc2)C(=O)N1Nc1ccccc1 [Fenamidone, (S)-1-anilino-4-methyl-2-methylthio-4-phenylimidazolin-5-one] |  | 72 |
